Assay results published in ChEMBL document CHEMBL5518237, “Design of Novel 2-Phenylquinazolin-4-amines as Selective CYP1B1 Inhibitors for Overcoming Paclitaxel Resistance in A549 Cells” (J Med Chem, 2024).
Calls of active or inactive are those of the source. The rule behind the calls is not given here.

Experiments:
[1] = molecular target: T1, CYP1B1 (Homo sapiens, UniProt Q16678); assay: Inhibition of human recombinant CYP1B1 using 7-ethoxyresorufin as substrate at 0.01 uM preincubated with enzyme for 5 mins followed by fluorescent substrate and NADPH addition and measured after 35 mins by EROD assay; format: ADME; conditions: recombinant CYP1B1, probe 7-ethoxyresorufin, time 40 min
T1 sequence (Q16678 whole entry): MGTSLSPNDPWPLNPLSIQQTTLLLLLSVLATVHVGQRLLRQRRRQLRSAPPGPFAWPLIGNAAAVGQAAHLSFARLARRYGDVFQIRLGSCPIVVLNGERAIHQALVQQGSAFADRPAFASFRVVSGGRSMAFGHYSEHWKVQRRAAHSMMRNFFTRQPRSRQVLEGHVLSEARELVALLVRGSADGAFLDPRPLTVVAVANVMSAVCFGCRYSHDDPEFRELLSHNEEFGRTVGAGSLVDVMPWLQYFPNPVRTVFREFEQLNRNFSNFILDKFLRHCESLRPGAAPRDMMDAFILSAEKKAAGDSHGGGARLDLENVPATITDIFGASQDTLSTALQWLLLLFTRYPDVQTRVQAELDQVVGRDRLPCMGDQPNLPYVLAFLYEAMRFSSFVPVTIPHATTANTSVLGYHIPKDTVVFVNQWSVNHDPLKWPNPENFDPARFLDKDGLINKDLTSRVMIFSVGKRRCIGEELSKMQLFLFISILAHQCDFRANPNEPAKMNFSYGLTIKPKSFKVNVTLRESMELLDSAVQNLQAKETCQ

[2] = molecular target: T1, CYP1B1; assay: Inhibition of human recombinant CYP1B1 using 7-ethoxyresorufin as substrate at 1 uM preincubated with enzyme for 5 mins followed by fluorescent substrate and NADPH addition and measured after 35 mins by EROD assay; format: ADME; conditions: recombinant CYP1B1, probe 7-ethoxyresorufin, time 40 min
[3] = tested on: A549; assay: Inhibition of tumor metastasis in DMBA-stimulated PTX resistant human A549 cells assessed as inhibition of cell migration by measuring decrease in crawling ability of cells at 2.5 to 10 uM incubated for 48 hrs by wound healing assay; format: functional, cell-based; conditions: dose 2.5-10 µM
[4] = (§1) Selectivity ratio of IC50 for Inhibition of human recombinant CYP1A1 to IC50 for Inhibition of human recombinant CYP1B1; format: ADME; conditions: recombinant enzyme
[5] = tested on: CYP1A2 versus CYP1B1; assay: Selectivity ratio of IC50 for Inhibition of human recombinant CYP1A2 to IC50 for Inhibition of human recombinant CYP1B1; format: ADME; conditions: recombinant CYP1A2 and recombinant CYP1B1, read-out: Ratio IC50
[6] = molecular target: T2, Cytochrome P450 1A2 (Homo sapiens, UniProt P05177); assay: Inhibition of human recombinant CYP1A2 using 7-ethoxyresorufin as substrate preincubated with enzyme for 5 mins followed by fluorescent substrate and NADPH addition and measured after 50 mins by EROD assay; format: ADME
T2 sequence (P05177 whole entry): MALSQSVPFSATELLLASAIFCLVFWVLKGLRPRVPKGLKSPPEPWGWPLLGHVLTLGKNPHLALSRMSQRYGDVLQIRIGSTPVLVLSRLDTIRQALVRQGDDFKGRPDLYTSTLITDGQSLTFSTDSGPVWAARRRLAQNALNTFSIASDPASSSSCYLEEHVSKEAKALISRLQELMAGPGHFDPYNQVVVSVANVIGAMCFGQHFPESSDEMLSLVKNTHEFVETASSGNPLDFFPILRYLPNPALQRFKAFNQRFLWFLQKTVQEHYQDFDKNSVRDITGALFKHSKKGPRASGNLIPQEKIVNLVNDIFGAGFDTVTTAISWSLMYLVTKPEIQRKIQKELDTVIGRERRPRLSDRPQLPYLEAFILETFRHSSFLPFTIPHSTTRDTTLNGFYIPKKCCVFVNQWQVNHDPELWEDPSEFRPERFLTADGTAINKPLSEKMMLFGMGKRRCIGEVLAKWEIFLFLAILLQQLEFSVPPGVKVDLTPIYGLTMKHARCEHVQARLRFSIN

[7] = molecular target: T3, Cytochrome P450 1A1 (Homo sapiens, UniProt P04798); assay: Inhibition of human recombinant CYP1A1 using 7-ethoxyresorufin as substrate preincubated with enzyme for 5 mins followed by fluorescent substrate and NADPH addition and measured after 15 mins by EROD assay; format: ADME
T3 sequence (P04798 whole entry): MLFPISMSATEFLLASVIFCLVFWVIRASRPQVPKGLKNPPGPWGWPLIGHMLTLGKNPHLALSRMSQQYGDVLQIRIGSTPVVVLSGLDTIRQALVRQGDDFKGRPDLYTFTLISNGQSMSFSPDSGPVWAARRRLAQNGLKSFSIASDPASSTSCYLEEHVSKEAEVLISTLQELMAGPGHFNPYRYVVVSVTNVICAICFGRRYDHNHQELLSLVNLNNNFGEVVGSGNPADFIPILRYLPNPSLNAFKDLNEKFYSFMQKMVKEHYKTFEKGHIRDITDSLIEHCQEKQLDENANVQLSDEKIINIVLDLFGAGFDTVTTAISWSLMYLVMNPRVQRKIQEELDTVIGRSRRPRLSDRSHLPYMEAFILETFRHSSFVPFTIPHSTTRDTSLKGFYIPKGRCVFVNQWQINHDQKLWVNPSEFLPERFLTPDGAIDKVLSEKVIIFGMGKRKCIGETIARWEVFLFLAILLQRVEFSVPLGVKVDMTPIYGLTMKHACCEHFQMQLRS

[8] = molecular target: T4, Cytochrome P450 1B1 (Homo sapiens, UniProt Q16678); assay: Inhibition of human recombinant CYP1B1 using 7-ethoxyresorufin as substrate preincubated with enzyme for 5 mins followed by fluorescent substrate and NADPH addition and measured after 35 mins by EROD assay; format: ADME
T4 sequence (Q16678 whole entry): T1 sequence (Q16678 whole entry)

[9] = n-Octanol/water partition coefficient, logP of the compound by HPLC analysis; format: physicochemical
[10] = tested on: A549; assay: Induction of apoptosis in DMBA-stimulated PTX resistant human A549 cells assessed as apoptosis rate at 5 uM incubated for 24 hrs by flow cytometry (reference value: 6.67 +/- 1.03%); format: functional
[11] = tested on: CYP1A1 versus CYP1B1; assay: as §1; format: ADME; conditions: recombinant CYP1A1 and recombinant CYP1B1, read-out: Ratio IC50

inhibition at 35 min, 0.01 µM [1]	inhibition at 35 min, 1 µM [2]	Compound	further results
14%	94.2%	Nc1nc(-c2cccc(Cl)c2)nc2c1ccc1ccccc12	–
21.8%	86.4%	CCCCNc1nc(-c2ccc(I)cc2)nc2ccccc12	–
-12.8%	93.8%	Nc1nc(-c2cccc(Br)c2)nc2c1ccc1ccccc12	–
2%	91.2%	Ic1ccc(-c2nc(NCc3ccccc3)c3ccccc3n2)cc1	–
28.4%	1.98%	COC(=O)c1cccc(-c2nc(N)c3ccccc3n2)c1	–
22.4%	10.2%	Nc1nc(-c2cccc(C(=O)O)c2)nc2ccccc12	–
13.2%	55.4%	Nc1nc(-c2cccc(Br)c2)nc2ccccc12	–
74.4%	96%	C#CCOc1ccc(-c2nc(N)c3ccccc3n2)cc1	–
1.94%	27.6%	Nc1nc(-c2ccc(Oc3ccc(Cl)cc3Cl)cc2)nc2ccccc12	–
3.87%	94.8%	COc1cccc(-c2nc(N)c3ccc4ccccc4c3n2)c1	–
80.6%	95.4%	Nc1nc(-c2ccc(Br)cc2)nc2c1ccc1ccccc12	selectivity ratio [11]: 9.16; selectivity ratio [5]: 256; IC50 [6]: 784 nM; IC50 [7]: 28.1 nM; IC50 [8]: 3.07 nM
68.4%	96%	Nc1nc(-c2ccc(Cl)cc2)nc2ccccc12	–
68.5%	96.5%	OCCNc1nc(-c2ccc(I)cc2)nc2ccccc12	–
-13.1%	75.3%	Cc1ccc(-c2nc(N)c3ccc4ccccc4c3n2)cc1	–
25.8%	74.4%	Nc1nc(-c2cccc(Cl)c2)nc2ccccc12	–
65.4%	95.5%	CN(C)c1nc(-c2ccc(I)cc2)nc2ccccc12	–
69.5%	94.5%	O=c1[nH]c(-c2ccc(Br)cc2)nc2ccccc12	–
67.8%	94.2%	CCCNc1nc(-c2ccc(I)cc2)nc2ccccc12	–
69.4%	95.4%	Nc1nc(-c2ccc(Cl)cc2)nc2c1ccc1ccccc12	–
10.1%	91.7%	COc1cccc(-c2nc(N)c3ccccc3n2)c1	–

More lines, now with the values behind:

Compound	inhibition at 35 min, 0.01 µM [1]	inhibition at 35 min, 1 µM [2]	further results
Nc1nc(-c2ccc(I)cc2)nc2ccccc12	–	–	inhibition [3]: Active
CC(C)Nc1nc(-c2ccc(I)cc2)nc2ccccc12	32.8%	95.3%	–
Nc1nc(-c2cccc(F)c2)nc2ccccc12	-1.45%	78.9%	–
Cl.Nc1nc(-c2ccc(I)cc2)nc2ccccc12	94.5%	96.7%	Ratio IC50 [4]: 617.5; selectivity ratio [5]: 101000; IC50 [6]: 2030 nM; IC50 [7]: 12.3 nM; IC50 [8]: 0.02 nM; logP ([9]; octanol/water): 2.71; Activity [10]: 18.53%
Nc1nc(-c2ccccc2)nc2c1ccc1ccccc12	6.15%	93.5%	–
Ic1ccc(-c2nc(N3CCCCC3)c3ccccc3n2)cc1	13.8%	91.1%	–
Ic1ccc(-c2nc(N3CCOCC3)c3ccccc3n2)cc1	51.8%	93.8%	–
Nc1nc(-c2cccc(I)c2)nc2ccccc12	66.4%	96.7%	–
COC(=O)c1ccc(-c2nc(N)c3ccccc3n2)cc1	15.9%	92.7%	–
Ic1ccc(-c2nc(N3CCCC3)c3ccccc3n2)cc1	39.8%	94.9%	–
Nc1nc(-c2ccc(F)cc2)nc2ccccc12	3.73%	80.7%	–
Nc1nc(-c2ccc(I)cc2)nc2c1ccc1ccccc12	63.1%	88.5%	–
NCCNc1nc(-c2ccc(I)cc2)nc2ccccc12	-6.11%	39.5%	–
Nc1nc(-c2ccc(Br)nc2)nc2ccccc12	12.8%	73.4%	–
COc1ccc(-c2nc(N)c3ccc4ccccc4c3n2)cc1	44.2%	95.2%	–
Nc1nc(-c2ccc(C(=O)O)cc2)nc2ccccc12	20.2%	-2.32%	–
Nc1nc(-c2cccc(F)c2)nc2c1ccc1ccccc12	10.5%	94.5%	–
Nc1nc(-c2ccc(F)cc2)nc2c1ccc1ccccc12	11%	95%	–
Nc1nc(-c2ccc(Br)cc2)nc2ccccc12	82.7%	96.4%	selectivity ratio [11]: 211; selectivity ratio [5]: 4060; IC50 [6]: 1990 nM; IC50 [7]: 104 nM; IC50 [8]: 0.49 nM; logP ([9]; n-octanol/water, read-out: logP): 2.12
Nc1nc(-c2ccc(Cl)nc2)nc2ccccc12	6.96%	68%	–
Nc1nc(-c2ccccc2)nc2ccccc12	-13.5%	65.5%	–
Cc1ccc(-c2nc(N)c3ccccc3n2)cc1	89.6%	97.8%	selectivity ratio [11]: 156; selectivity ratio [5]: 3160; IC50 [6]: 5340 nM; IC50 [7]: 263 nM; IC50 [8]: 1.69 nM
Ic1ccc(-c2nc(Nc3ccccc3)c3ccccc3n2)cc1	7.25%	60.4%	–
COc1ccc(-c2nc(N)c3ccccc3n2)cc1	84.1%	91.8%	selectivity ratio [11]: 99.9; selectivity ratio [5]: 2360; IC50 [6]: 5840 nM; IC50 [7]: 248 nM; IC50 [8]: 2.48 nM
